Laboratory results taken from patent US11285142B2, “Compositions and methods for identifying and treating dystonia disorders” (DUKE UNIVERSITY, priority 2015, dated 2022).
“Also recorded” adds a separate entry of the source. Where a name gives a salt, the structure may show the parent alone. Read-outs that look alike come from different tables or passages of the source.

Legend:
[1] = test system: Flp-In T-REx 293 cells expressing delta-E Torsin1a; experiment: Cytotoxicity (cell count, cellular morphology) in the Torsin1a assay cell line; type: cell-based, human; conditions: for ΔE TorsinA Mislocalization Assay Cytotoxicity EC50: Table 5; for Cytotox CC-v2 (dose response Curve Class) / Cytotox Efficacy / Cytotox Max Resp / AC50: Table 6; for toxicity (cell count, cellular morphology; in words): at effective concentrations; for AC50: read-out: Cytotox AC50
Method: (§1) In order to test this model directly, the delta-E Torsin1a cell line was treated with compounds targeting the eIF2-alpha signaling pathway (FIG. 2). […] The following day, serial drug dilutions were prepared at 2× final concentration in assay media containing 10 μg/mL tetracycline and 30 μL of the drug/tetracycline mixture was added to the appropriate wells, while control wells received 30 μL of assay media alone or assay media+10 μg/mL tetracycline (final tetracycline concentration for all wells except negative controls: 5 μg/mL). Cells were then incubated at 37° C./5% CO^2 for 48 hours and fixed, permeabilized, Hoechst stained, and imaged as described above. The range of the Torsin1a localization effect was normalized to the percentage of cells with puncta in vehicle-treated delta-E cell line as the maximum and that in WT cell line as the minimum (FIG. 2, panels c-h). Cell count and EGFP-Torsin1a expression were normalized to their respective values in the vehicle-treated delta-E cell line as the maximum. All dose response data are the average of 4 independent experiments per dose. Untreated control data used for normalization are the average of 24 independent experiments.
(§2) Efficacy is calculated as the magnitude of the pathology correction relative to the mutant Torsin1a pathology. For example an efficacy=−100% would be equivalent to the WT TorsinA phenotype, and 0% would be equivalent to the Mutant TorsinA phenotype. CCv2 refers to the dose response Curve Class annotation, and AC refers to Active Concentration.

[2] = test system: delta-E Torsin1a localization in Flp-In T-REx 293 cells expressing EGFP-delta-E Torsin1a; experiment: delta-E Torsin1a mis-localization assay (high-content imaging, % cells with EGFP puncta); type: cell-based, human; conditions: for ΔE TorsinA Mislocalization Assay Localization EC50 / EC50 / Emax: Table 5; for effect on delta-E Torsin1a localization (in words): delta-E cell line, dose response; for % pathology CC-v2 (dose response Curve Class) / AC50 / % pathology Max Resp / % pathology Efficacy: Table 6; for AC50: AC = Active Concentration, read-out: % pathology AC50; for % pathology Max Resp / % pathology Efficacy: normalized scale; for % pathology Max Resp: WT-TorsinA line 0%, DYT1 mutant line 100% pathology; for % pathology Efficacy: −100% = WT TorsinA phenotype, 0% = Mutant TorsinA phenotype; for EC50: read-out: ΔE TorsinA Mislocalization Assay Localization EC50; for Emax: read-out: ΔE TorsinA Mislocalization Assay Localization Max Efficacy
Method: To limit variation in expression levels associated with random integration or transient expression, single copies of either WT or delta-E human TOR1A cDNAs with N-terminal EGFP fusions were inserted at the FRT site in Flp-In™ T-Rex™ 293 cells (Thermo Fisher Scientific #R780-07) via flippase recombinase-mediated cassette exchange according to the manufacturer's recommended protocols.
The cells were maintained at 37° C./5% CO2. All experiments were performed on cells with fewer than 5 passages.
Torsin1a expression was also controlled by tetracycline induction to avoid selective pressure modifying the cellular phenotypes. […] The mutant phenotype was measured as the percentage of cells with one or more EGFP puncta using automated high-content imaging analysis (see infra).
The image analysis algorithm was developed using the Cellomics ArrayScan V CompartmentAnalysisV2 protocol. Hoechst's nuclear staining (Ch1: excitation 350 nm; emission 461 nm) was used for focusing and for cell identification by nuclear size, shape, and intensity. […] Detected cells were gated according to nuclear area, length-to-width ratio, and perimeter-to-area ratio. For the purpose of analysis, cell bodies were defined by a radius of 10 μm from the outer edge of the defined nucleus. Overlapping cells were automatically segmented according to the Cellomics ArrayScanV CompartmentAnalysisV2 object segmentation feature. EGFP fluorescence (Ch2: excitation 488 nm; emission 509 nm) was used for puncta detection. […] Torsin1a puncta were identified using the spot detection feature of the Compartmental AnalysisV2 protocol. The percentage of cells containing one or more puncta was used as the primary metric in this assay.
as §1

luciferase secretion = experiment: C.Luc. Secretion Assay (luciferase secretion, secretory deficits); type: cell-based; conditions: for C.Luc. Secretion Assay Secretion EC50 / EC50 / Emax: Table 5; for Emax: read-out: C.Luc. Secretion Assay Secretion Max Efficacy; for correction of secretory deficits (in words): orthogonal assays
Method: We tested each shRNA for its ability to rescue a previously described defect in luciferase secretion. Chen, P. et al. (2010) Hum. Mol. Genet. 19, 3502-15; Cao, S. et al. (2010) Dis. Model. Mech. 3, 386-96; Barrows, N. J., et al., (2010)J. Biomol. Screen. 15, 735-47.) DYT1 patient data were obtained from 4 independent patient-derived lines and WT data (black bar) from 3 normal healthy control lines. Each line was tested in 5 independent experiments that included 4 technical replicates each (with the exception of SCD data from 3 independent experiments).
(Cao, S. et al. (2010) Dis. Model. Mech. 3, 386-96.) Subsequent testing of additional HIV protease inhibitors supported the activity of this class of compounds and generated favorable structure-activity relationship (SAR) data from which to design improved compounds (Tables 5 and 6). The results with a subset of compounds were also observed in a Luciferase secretion assay (Tables 5 and 6).

[3] = Cytotoxicity (cell count, cellular morphology) in the Torsin1a assay cell line; type: cell-based, human; conditions: human; for AC50: Table 6, read-out: Cytotox AC50; for EC50 at 48 h: Flp-In T-REx 293 cells inducibly expressing delta-E Torsin1a, Table 5, read-out: ΔE TorsinA Mislocalization Assay Cytotoxicity EC50
Method: as §1, §2

In the case of CC(C)CN(C[C@@H](O)[C@H](Cc1ccccc1)NC(=O)O[C@H]1CCOC1)S(=O)(=O)c1ccc(N)cc1 [Amprenavir], the “ΔE TorsinA Mislocalization Assay Cytotoxicity EC50” value [1] is reported as “None”, the “Cytotox CC-v2 (dose response Curve Class)” value (from here on “Cytotox CC-v2”) [1] is reported as 4 and the “ΔE TorsinA Mislocalization Assay Localization EC50” value [2] is reported as “No Activity”. The “C.Luc. Secretion Assay Secretion EC50” value (luciferase secretion) was “No Activity”.
For COC(=O)N[C@H](C(=O)N[C@@H](Cc1ccccc1)[C@@H](O)CN(Cc1ccc(-c2ccccn2)cc1)NC(=O)[C@@H](NC(=O)OC)C(C)(C)C)C(C)(C)C [Atazanavir], the “ΔE TorsinA Mislocalization Assay Cytotoxicity EC50” value [1] was “None”, the “Cytotox CC-v2” value [1] was 4 and the “ΔE TorsinA Mislocalization Assay Localization EC50” value [2] was “No Activity”. For the same molecule, the “C.Luc. Secretion Assay Secretion EC50” value (luciferase secretion) was “No Activity”.
With CCN(CC)CCC(=O)N1N=C(c2c(-c3ccccc3)c3cc(Br)ccc3[nH]c2=O)CC1c1ccc(Br)cc1 (stereo not shown) [CCT020312] the “toxicity (cell count, cellular morphology; in words)” value [1] was “highly toxic at effective concentrations” and the “effect on delta-E Torsin1a localization (in words)” value [2] was “dose-dependent reduction”.
In the case of C[C@H](NC(=O)Cc1cc(F)cc(F)c1)C(=O)N[C@H](C(=O)OC(C)(C)C)c1ccccc1 [DAPT], the “effect on delta-E Torsin1a localization (in words)” value [2] is reported as “no effect”.
For CC(C)CN(C[C@@H](O)[C@H](Cc1ccccc1)NC(=O)O[C@H]1CO[C@H]2OCC[C@H]21)S(=O)(=O)c1ccc(N)cc1 [Darunavir], the “ΔE TorsinA Mislocalization Assay Localization EC50” value [2] was “No Activity” and the “C.Luc. Secretion Assay Secretion EC50” value (luciferase secretion) was “No Activity”.
With Cc1cccc(C)c1OCC(=O)NC(CCC(Cc1ccccc1)NC(=O)C(C(C)C)N1CCCNC1=O)Cc1ccccc1 (stereo not shown) [Des-hydroxy Lopinavir] the “Cytotox CC-v2” value [1] was −2.2, the “Cytotox Efficacy” value [1] was −77.66 and the “Cytotox Max Resp” value [1] was −66.67. For the same molecule, the AC50 [1] was 20.9 µM, the “% pathology CC-v2 (dose response Curve Class)” value [2] was −3 and the AC50 [2] was 8.33 µM. For the same molecule, the “% pathology Max Resp” value [2] was −33.96% and the “% pathology Efficacy” value [2] was −82.44%.
In the case of CC(C)(C)NC(=O)[C@@H]1CN(Cc2cccnc2)CCN1C[C@@H](O)C[C@@H](Cc1ccccc1)C(=O)N[C@H]1c2ccccc2C[C@H]1O [Indinavir sulfate], the “Cytotox CC-v2” value [1] is reported as −3, the “Cytotox Efficacy” value [1] is reported as −80.64 and the “Cytotox Max Resp” value [1] is reported as −67.80. The AC50 [3] was 37.2 µM, the AC50 ([2]; Homo sapiens, Flp-In-T-REx-293) was 29.6 µM and the “% pathology Max Resp” value [2] was −97.76%. The “% pathology Efficacy” value [2] was −114.60%.
With CC(C)(C)NC(=O)[C@@H]1CN(Cc2cccnc2)CCN1C[C@@H](O)C[C@@H](Cc1ccccc1)C(=O)N[C@H]1c2ccccc2C[C@H]1O [Indinavir, indinavir] the “toxicity (cell count, cellular morphology; in words)” value [1] was “no cellular toxicity observed at effective doses”, the EC50 at 48 h [3] was 35.2 µM and the EC50 ([2]; Homo sapiens, Flp-In-T-REx-293) was 26.5 µM. The Emax ([2]; Homo sapiens, Flp-In-T-REx-293) was 114%, the “effect on delta-E Torsin1a localization (in words)” value [2] was “corrected TorsinA localization in a dose-dependent fashion” and the “C.Luc. Secretion Assay Secretion EC50” value (luciferase secretion) was “No Activity”.
With CS(=O)(=O)O.Cc1c(O)cccc1C(=O)N[C@@H](CSc1ccccc1)[C@H](O)CN1C[C@H]2CCCC[C@H]2C[C@H]1C(=O)NC(C)(C)C.O [Nelfinavir mesylae hydrate] the “Cytotox CC-v2” value [1] was −1.1, the “Cytotox Efficacy” value [1] was −98.05 and the “Cytotox Max Resp” value [1] was −95.64. For the same molecule, the AC50 [1] was 6.05 µM, the “% pathology CC-v2 (dose response Curve Class)” value [2] was −1.1 and the AC50 [2] was 2.7 µM. The “% pathology Max Resp” value [2] was −92.46% and the “% pathology Efficacy” value [2] was −75.26%.
With Cc1c(O)cccc1C(=O)N[C@@H](CSc1ccccc1)[C@H](O)CN1C[C@H]2CCCC[C@H]2C[C@H]1C(=O)NC(C)(C)C [Nelfinavir, nelfinavir] the “toxicity (cell count, cellular morphology; in words)” value [1] was “no cellular toxicity observed at effective doses”, the EC50 at 48 h [3] was 6.05 µM and the EC50 ([2]; Homo sapiens, Flp-In-T-REx-293) was 3.49 µM. The Emax ([2]; Homo sapiens, Flp-In-T-REx-293) was 80%, the “effect on delta-E Torsin1a localization (in words)” value [2] was “corrected TorsinA localization in a dose-dependent fashion” and the “C.Luc. Secretion Assay Secretion EC50” value (luciferase secretion) was “No Activity”.
For CC(C)c1nc(CN(C)C(=O)N[C@H](C(=O)N[C@@H](Cc2ccccc2)C[C@H](O)[C@H](Cc2ccccc2)NC(=O)OCc2cncs2)C(C)C)cs1 [Ritonavir, ritonavir], the “Cytotox CC-v2” value [1] was 4, the “toxicity (cell count, cellular morphology; in words)” value [1] was “no cellular toxicity observed at effective doses” and the EC50 ([2]; Homo sapiens, Flp-In-T-REx-293) was 4.11 µM. The Emax ([2]; Homo sapiens, Flp-In-T-REx-293) was 87%, the AC50 ([2]; Homo sapiens, Flp-In-T-REx-293) was 2.96 µM and the “% pathology Max Resp” value [2] was −82.60%. The “% pathology Efficacy” value [2] was −92.96%, the “effect on delta-E Torsin1a localization (in words)” value [2] was “corrected TorsinA localization in a dose-dependent fashion; also recorded: restored” and the EC50 (luciferase secretion) was 3.72 µM. For the same molecule, the Emax (luciferase secretion) was 49% and the “correction of secretory deficits (in words)” value (luciferase secretion) was “corrected secretory deficits”.
With CC(C)(C)NC(=O)[C@@H]1C[C@@H]2CCCC[C@@H]2CN1C[C@@H](O)[C@H](Cc1ccccc1)NC(=O)[C@H](CC(N)=O)NC(=O)c1ccc2ccccc2n1 [Saquinavir mesylate] the AC50 [3] was 20.9 µM, the AC50 ([2]; Homo sapiens, Flp-In-T-REx-293) was 8.33 µM and the “% pathology Max Resp” value [2] was −84.62%. The “% pathology Efficacy” value [2] was −85.98%.
With CC(C)(C)NC(=O)[C@@H]1C[C@@H]2CCCC[C@@H]2CN1C[C@@H](O)[C@H](Cc1ccccc1)NC(=O)[C@H](CC(N)=O)NC(=O)c1ccc2ccccc2n1 [Saquinavir, saquinavir] the EC50 at 48 h [3] was 23.6 µM, the EC50 ([2]; Homo sapiens, Flp-In-T-REx-293) was 9.41 µM and the Emax ([2]; Homo sapiens, Flp-In-T-REx-293) was 88%. The “effect on delta-E Torsin1a localization (in words)” value [2] was “corrected TorsinA localization in a dose-dependent fashion”, the EC50 (luciferase secretion) was 8.09 µM and the Emax (luciferase secretion) was 34%. For the same molecule, the “correction of secretory deficits (in words)” value (luciferase secretion) was “corrected secretory deficits”.
In the case of Cc1c(O)cccc1C(=O)N[C@@H](CSc1ccccc1)[C@H](O)CN1C[C@H]2CCCC[C@H]2C[C@H]1C(=O)NC(C)(C)C [Viracept], the “Cytotox CC-v2” value [1] is reported as −1.1, the “Cytotox Efficacy” value [1] is reported as −106.32 and the “Cytotox Max Resp” value [1] is reported as −97.72. For the same molecule, the AC50 [3] was 10.5 µM, the AC50 ([2]; Homo sapiens, Flp-In-T-REx-293) was 5.26 µM and the “% pathology Max Resp” value [2] was −94.06%. For the same molecule, the “% pathology Efficacy” value [2] was −119.39%.
With N=C(N)N/N=C/c1c(Cl)cccc1Cl [guanabenz] the “effect on delta-E Torsin1a localization (in words)” value [2] was “no effect”.
In the case of CCCC(CCC)C(=O)O [valproic acid], the “effect on delta-E Torsin1a localization (in words)” value [2] is reported as “no effect”.
